Columns and labels:
DU-145 = assay: cells; assay type: functional, cell-based; conditions: Homo sapiens, DU-145, 72 h
Estrogen receptor beta [1] = target: T1, Estrogen receptor beta (Homo sapiens, UniProt Q92731); assay: Binding affinity to human ER-beta ligand binding domain after 2 hrs by competitive fluorometric binding assay
MCF7 = assay: cells; assay type: functional, cell-based; conditions: Homo sapiens, MCF7, 72 h
Estrogen receptor beta [2] = target: T1, Estrogen receptor beta; assay: Agonist activity at ER-beta (unknown origin) transfected in HEK293T cells assessed as stimulation of transcriptional activity after 24 hrs by luciferase reporter gene assay relative to 17-beta estradiol; assay type: cell-based; conditions: HEK-293T
Estrogen receptor beta [3] = target: T1, Estrogen receptor beta; assay: Agonist activity at ER-beta (unknown origin) transfected in HEK293T cells assessed as stimulation of transcriptional activity after 24 hrs by luciferase reporter gene assay; assay type: cell-based, HEK-293T
Estrogen receptor = target: T2, Estrogen receptor (Homo sapiens, UniProt P03372); assay: Binding affinity to human ER-alpha ligand binding domain after 2 hrs by competitive fluorometric binding assay
T2 sequence (P03372 whole entry): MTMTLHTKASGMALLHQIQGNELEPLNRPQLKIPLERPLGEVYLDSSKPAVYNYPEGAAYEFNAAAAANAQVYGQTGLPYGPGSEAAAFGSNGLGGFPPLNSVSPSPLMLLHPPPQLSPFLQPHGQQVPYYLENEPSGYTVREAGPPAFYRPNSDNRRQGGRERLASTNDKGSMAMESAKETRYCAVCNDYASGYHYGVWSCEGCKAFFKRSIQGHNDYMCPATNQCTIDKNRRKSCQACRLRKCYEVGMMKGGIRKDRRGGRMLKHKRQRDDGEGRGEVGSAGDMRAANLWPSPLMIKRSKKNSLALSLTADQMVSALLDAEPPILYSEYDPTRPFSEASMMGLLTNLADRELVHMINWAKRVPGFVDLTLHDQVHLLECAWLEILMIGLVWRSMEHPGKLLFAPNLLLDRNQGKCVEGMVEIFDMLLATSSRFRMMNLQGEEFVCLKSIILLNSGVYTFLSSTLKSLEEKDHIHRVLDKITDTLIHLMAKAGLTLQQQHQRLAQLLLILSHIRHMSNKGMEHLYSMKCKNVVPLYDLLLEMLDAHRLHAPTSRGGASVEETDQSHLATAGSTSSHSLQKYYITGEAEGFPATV

[4] = target: T3, Estrogen receptor (Homo sapiens) (UniProt P03372); assay: Agonist activity at ER-alpha (unknown origin) transfected in HEK293T cells assessed as stimulation of transcriptional activity after 24 hrs by luciferase reporter gene assay relative to 17-beta estradiol; assay type: cell-based; conditions: HEK-293T
T3 sequence (whole entry): T2 sequence (P03372 whole entry)

Estrogen receptor beta [5] = target: T1, Estrogen receptor beta; assay: Antagonist activity at ER-beta (unknown origin) transfected in HEK293T cells assessed as inhibition of transcriptional activity after 24 hrs by luciferase reporter gene assay relative to 17-beta estradiol; assay type: cell-based; conditions: HEK-293T
Vero = assay: cells; assay type: ADME, cell-based; conditions: Chlorocebus sabaeus, 72 h
[6] = target: T3, Estrogen receptor (Homo sapiens); assay: Antagonist activity at ER-alpha (unknown origin) transfected in HEK293T cells assessed as inhibition of transcriptional activity after 24 hrs by luciferase reporter gene assay relative to 17-beta estradiol; assay type: cell-based; conditions: HEK-293T

T1 sequence (Q92731 whole entry, the tested form may be a part): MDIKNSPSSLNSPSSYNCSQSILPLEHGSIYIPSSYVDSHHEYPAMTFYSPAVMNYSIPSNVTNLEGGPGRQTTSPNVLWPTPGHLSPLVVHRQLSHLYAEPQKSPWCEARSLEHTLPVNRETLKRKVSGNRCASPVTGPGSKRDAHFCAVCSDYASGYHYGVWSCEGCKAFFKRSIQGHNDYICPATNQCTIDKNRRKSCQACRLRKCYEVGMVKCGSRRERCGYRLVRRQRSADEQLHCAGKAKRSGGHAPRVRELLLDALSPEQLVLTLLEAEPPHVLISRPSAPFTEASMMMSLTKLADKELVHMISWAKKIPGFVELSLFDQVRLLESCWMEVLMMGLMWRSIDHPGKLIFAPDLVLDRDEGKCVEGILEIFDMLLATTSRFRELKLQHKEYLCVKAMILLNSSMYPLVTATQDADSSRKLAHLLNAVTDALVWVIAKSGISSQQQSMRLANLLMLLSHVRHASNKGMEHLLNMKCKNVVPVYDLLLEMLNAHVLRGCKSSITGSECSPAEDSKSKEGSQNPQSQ

| Structure (SMILES) | IC50 (DU-145) | Ki (Estrogen receptor beta [1]) | IC50 (MCF7) | Efficacy (Estrogen receptor beta [2]) | EC50 (Estrogen receptor beta [3]) | Ki (Estrogen receptor) | Efficacy [4] | Efficacy (Estrogen receptor beta [5]) | Efficacy [6] | IC50 (Vero) |
| --- | --- | --- | --- | --- | --- | --- | --- | --- | --- | --- |
| Cc1ccccc1OS(=O)(=O)C1CC2OC1C(c1ccc(NC(=O)CCCCCCC(=O)NO)cc1)=C2c1ccc(O)cc1 (racemic) | 30.7 µM | 2.12 µM | 24.1 µM | 27% | 0.203 µM | > 5 µM | -20% | 94% | 126% | > 100 µM |
| O=C(O)CCCCCCC(=O)Nc1cccc(OS(=O)(=O)C2CC3OC2C(c2ccc(O)cc2)=C3c2ccc(O)cc2)c1 (stereo not given) | > 100 µM |  | > 100 µM | 47% | 2.1 µM |  | 51% | 102% | 122% | > 100 µM |
| O=C(CCCCCCC(=O)Nc1ccc(C2=C(c3ccc(O)cc3)C3CC(S(=O)(=O)Oc4ccc(F)cc4)C2O3)cc1)NO (racemic) | 47.3 µM | 3.4 µM | 23.4 µM | 49% | 0.002 µM | > 5 µM |  | 86% | 135% | > 100 µM |
| O=C(CCCCCCC(=O)Nc1ccc(C2=C(c3ccc(O)cc3)C3CC(S(=O)(=O)Oc4ccccc4)C2O3)cc1)NO (racemic) | 37.7 µM |  | 30.1 µM | 38% | 0.002 µM | > 5 µM | 20% | 92% | 77% | > 100 µM |

Further compounds by falling IC50 (DU-145), results first:

| IC50 (DU-145) | Ki (Estrogen receptor beta [1]) | IC50 (MCF7) | Efficacy (Estrogen receptor beta [2]) | EC50 (Estrogen receptor beta [3]) | Ki (Estrogen receptor) | Efficacy [4] | Efficacy (Estrogen receptor beta [5]) | Efficacy [6] | Structure (SMILES) | IC50 (Vero) |
| --- | --- | --- | --- | --- | --- | --- | --- | --- | --- | --- |
| 44.7 µM |  | 25.8 µM | 53% | 0.023 µM | > 5 µM | 9% | 74% | 164% | COc1ccccc1OS(=O)(=O)C1CC2OC1C(c1ccc(NC(=O)CCCCCCC(=O)NO)cc1)=C2c1ccc(O)cc1 (racemic) | > 100 µM |
| 42.9 µM | > 5 µM | 40.4 µM | 52% | 0.038 µM | > 5 µM | -28% | 95% | 116% | Cc1ccc(OS(=O)(=O)C2CC3OC2C(c2ccc(NC(=O)CCCCCCC(=O)NO)cc2)=C3c2ccc(O)cc2)cc1 (racemic) | > 100 µM |

Source: ChEMBL document CHEMBL3588800, “Novel Bioactive Hybrid Compound Dual Targeting Estrogen Receptor and Histone Deacetylase for the Treatment of Breast Cancer” (J Med Chem, 2015)
